In brackets after ≈: the same amount, converted by molar mass.
Tests used:
[1] = system: HIV-1RF; assay: CEM-T4 cell infection assay, reverse transcriptase readout, isolate RF; assay type: cell-based; settings: Human immunodeficiency virus 1, CEM-T4, 168 h, Table 4, CEM-T4 cells, 7 days, read-out: Virus Isolate (EC50 ng/mL) RF
Excerpt: (§1) RF represents the HIV-1 strain HIV-LRF and RFR represents a mixture of resistant strains obtained by selection of RF against the compound of Example 1. RFR comprises a mixture of viral strains having protease genotypes of G48V (14/40 clones); G48V, V82A (18/40 clones); G48V, L90S (2/40 clones); G48V, 154T, V82A (1/40 clones); G48M (1/40 clones); G48V, Q61H (1/40 clones); V13I, G48V (1/40 clones); G48V, F53L, V82A (1/40 clones); and G48V, V82A, C95Y (1/40 clones). RFR2 represents a mixture of resistant strains obtained by cloning RFR by three rounds of growth at limiting dilution. RFR2 comprises a mixture of viral strains having protease genotypes of G48V, V82A (13/15 clones); G17E, G48V, V82A (1/15 clones); and G48V, V82A, N37D, N88D (1/15 clones). RFRR represents a mixture of resistant strains obtained by selection of RF against the compounds of Examples 1 and 2 and then cloning by three rounds of growth at limiting dilution. RFRR comprises a mixture of viral strains having protease genotypes of G48V, 154T, L63P, V82A (7/9 clones); G48V, 154T, L63P, V82A, N88S (1/9 clones); and G48V, 154T, L63P, G73M, V82A (1/9 clones). SF162 represents the HIV-1 strain SF-162 and SF162R represents a mixture of resistant strains obtained by selection of SF162 against the compound of Example 1. SF162R comprises a mixture of viral strains having protease genotypes of M461, F53L, L63P, A71V, N88D (2/3 clones); and M46I, F53L, L63P, A71V, N88D, Q92R (1/3 clones). 89-959 represents the HIV-1 strain 89-959 and 89-959R represents a mixture of resistant strains obtained by selection of 89-959 against the compound of Example 2. 89-959R comprises a mixture of viral strains having protease genotypes of N88S (4/5 clones); and D25N, T26A, D30N, D37N, R41K, G73D, R87K, N88S (1/4 clones). NL4 represents the HIV-1 strain HIV-1NL4-3. NL4(G48V) represents a strain having a synthetically generated site-directed mutation in the protease from glycine to valine at amino acid position number 48. NL4(I84V) represents a strain having a synthetically generated site-directed mutation in the protease from isoleucine to valine at amino acid position number 84. NL4(R8Q,M46I) represents a strain having synthetically generated site-directed mutations in the protease from arginine to glutamine at amino acid position number 8 and methionine to isoleucine at amino acid position number 46. NL4(P22-538) represents a mixture of resistant strains obtained by selection of HIV-1NL4-3 against the compound of Example 10 after 22 passages comprising protease genotypes M46I, L63P, A71V, V82F, I84V (4/10); M46I, L63P, V82F, I84V (3/10); and M46I, A71V, V82F, I84V (3/10). NL4(P37-538) represents resistant strains obtained by selection of HIV-1NL4-3 against the compound of Example 10 after 37 passages comprising protease genotype M46I, L63P, A71V, 184A. NL4(538/524) represents resistant strains obtained by selection of NL4(P22-538) against the compound of Example 5 after 24 passages comprising protease genotype M46I, L63P, A71V, 184A. NL4(538/P7-AG) represents a mixture of resistant strains obtained by selection of NL4(P22-538) against the compound of Example 12 after 7 passages comprising protease genotypes M46I, L63P, A71V, 184A; and V321, V82I. NL4(538/P24-AG) represents resistant strains obtained by selection of NL4(P22-538) against the compound of Example 12 after 24 passages comprising protease genotype M46I, L63P, A71V, 184A. NLA(P19-003) represents resistant strains obtained by selection of HIV-1^NL4-3 against the compound of Example 9 after 19 passages comprising protease genotype R8K, M46I. NL4(P34-003) represents resistant strains obtained by selection of HIV-1^NL4-3 against the compound of Example 9 after 34 passages comprising protease genotype R8K, M46I, L63P, A71V, L90M.
(§2) The viral isolate resistance results summarized in Tables 4-6 were generated according to the following assay procedure or minor modifications thereof. Assays are performed in 96-well tissue culture plates. […]

[2] = system: RFR (resistant strains selected from RF against Example 1); assay: CEM-T4 cell infection assay, reverse transcriptase readout, resistant isolate RFR; assay type: cell-based, HIV-1; settings: Human immunodeficiency virus 1, CEM-T4, 168 h, Table 4, CEM-T4 cells, 7 days, read-out: Virus Isolate (EC50 ng/mL) RFR
Excerpt: as §1, §2

[3] = system: HIV-1NL4-3; assay: microbe, parasite or virus in culture; assay type: cell-based; settings: Human immunodeficiency virus 1, NL4
Excerpt: (§3) RF represents the HIV-1 strain HIV-LRF and RFR represents a mixture of resistant strains obtained by selection of RF against the compound of Example 1. […] RFR2 represents a mixture of resistant strains obtained by cloning RFR by three rounds of growth at limiting dilution. […] RFRR represents a mixture of resistant strains obtained by selection of RF against the compounds of Examples 1 and 2 and then cloning by three rounds of growth at limiting dilution. […] SF162 represents the HIV-1 strain SF-162 and SF162R represents a mixture of resistant strains obtained by selection of SF162 against the compound of Example 1. […] 89-959 represents the HIV-1 strain 89-959 and 89-959R represents a mixture of resistant strains obtained by selection of 89-959 against the compound of Example 2. […] NL4 represents the HIV-1 strain HIV-1NL4-3. NL4(G48V) represents a strain having a synthetically generated site-directed mutation in the protease from glycine to valine at amino acid position number 48. NL4(I84V) represents a strain having a synthetically generated site-directed mutation in the protease from isoleucine to valine at amino acid position number 84. NL4(R8Q,M46I) represents a strain having synthetically generated site-directed mutations in the protease from arginine to glutamine at amino acid position number 8 and methionine to isoleucine at amino acid position number 46.

[4] = system: NL4(G48V); assay: Viral isolate resistance assay per Markowitz et al., NL4(G48V); assay type: cell-based, HIV-1; settings: Human immunodeficiency virus 1, Table 7
Excerpt: as §3

[5] = system: NL4(I84V); assay: Viral isolate resistance assay per Markowitz et al., NL4(I84V); assay type: cell-based, HIV-1; settings: Human immunodeficiency virus 1, Table 7
Excerpt: as §3

[6] = system: NL4(R8Q,M46I); assay: Viral isolate resistance assay per Markowitz et al., NL4(R8Q,M46I); assay type: cell-based, HIV-1; settings: Human immunodeficiency virus 1, read-out: Virus Isolate (EC50 nM) NL4(R8O, M46I)
Excerpt: (§4) RF represents the HIV-1 strain HIV-LRF and RFR represents a mixture of resistant strains obtained by selection of RF against the compound of Example 1. RFR comprises a mixture of viral strains having protease genotypes of G48V (14/40 clones); G48V, V82A (18/40 clones); G48V, L90S (2/40 clones); G48V, 154T, V82A (1/40 clones); G48M (1/40 clones); G48V, Q61H (1/40 clones); V13I, G48V (1/40 clones); G48V, F53L, V82A (1/40 clones); and G48V, V82A, C95Y (1/40 clones). RFR2 represents a mixture of resistant strains obtained by cloning RFR by three rounds of growth at limiting dilution. RFR2 comprises a mixture of viral strains having protease genotypes of G48V, V82A (13/15 clones); G17E, G48V, V82A (1/15 clones); and G48V, V82A, N37D, N88D (1/15 clones). RFRR represents a mixture of resistant strains obtained by selection of RF against the compounds of Examples 1 and 2 and then cloning by three rounds of growth at limiting dilution. RFRR comprises a mixture of viral strains having protease genotypes of G48V, 154T, L63P, V82A (7/9 clones); G48V, 154T, L63P, V82A, N88S (1/9 clones); and G48V, 154T, L63P, G73M, V82A (1/9 clones). SF162 represents the HIV-1 strain SF-162 and SF162R represents a mixture of resistant strains obtained by selection of SF162 against the compound of Example 1. SF162R comprises a mixture of viral strains having protease genotypes of M461, F53L, L63P, A71V, N88D (2/3 clones); and M46I, F53L, L63P, A71V, N88D, Q92R (1/3 clones). 89-959 represents the HIV-1 strain 89-959 and 89-959R represents a mixture of resistant strains obtained by selection of 89-959 against the compound of Example 2. 89-959R comprises a mixture of viral strains having protease genotypes of N88S (4/5 clones); and D25N, T26A, D30N, D37N, R41K, G73D, R87K, N88S (1/4 clones). NL4 represents the HIV-1 strain HIV-1NL4-3. NL4(G48V) represents a strain having a synthetically generated site-directed mutation in the protease from glycine to valine at amino acid position number 48. […]

[7] = system: NL4(P22-538); assay: Viral isolate resistance assay per Markowitz et al., NL4(P22-538); assay type: cell-based, HIV-1; settings: Human immunodeficiency virus 1; Table 9; selected against Example 10, 22 passages; read-out: Virus Isolate (EC50 nM) NL4(P22-538)
Excerpt: as §1, with “NLA(P19-003) represents resistant strains obtained by selection of HIV-1^NL4-3 against the compound of Example 9 after 19 passages comprising protease genotype R8K, M46I. NL4(P34-003) represents resistant strains obtained by selection of HIV-1^NL4-3 against the compound of Example 9 after 34 passages comprising protease genotype R8K, M46I, L63P, A71V, L90M.” left out

[8] = system: NL4(P37-538); assay: Viral isolate resistance assay per Markowitz et al., NL4(P37-538); assay type: cell-based, HIV-1; settings: Human immunodeficiency virus 1; Table 9; selected against Example 10, 37 passages; read-out: Virus Isolate (EC50 nM) NL4(P37-538)
Excerpt: as §1
The viral isolate resistance results summarized in Tables 7-11 were generated according to the assay procedures described by Markowitz et al., Journal of Virology, vol. […]

[9] = system: NL4(538/524); assay: Viral isolate resistance assay per Markowitz et al., NL4(538/524); assay type: cell-based, HIV-1; settings: Human immunodeficiency virus 1; Table 10; NL4(P22-538) selected against Example 5, 24 passages
Excerpt: as §1, with “NLA(P19-003) represents resistant strains obtained by selection of HIV-1^NL4-3 against the compound of Example 9 after 19 passages comprising protease genotype R8K, M46I. NL4(P34-003) represents resistant strains obtained by selection of HIV-1^NL4-3 against the compound of Example 9 after 34 passages comprising protease genotype R8K, M46I, L63P, A71V, L90M.” left out

[10] = system: NL4(538/P7-AG); assay: Viral isolate resistance assay per Markowitz et al., NL4(538/P7-AG); assay type: cell-based, HIV-1; settings: Human immunodeficiency virus 1; Table 10; NL4(P22-538) selected against Example 12, 7 passages
Excerpt: as §1, with “NLA(P19-003) represents resistant strains obtained by selection of HIV-1^NL4-3 against the compound of Example 9 after 19 passages comprising protease genotype R8K, M46I. NL4(P34-003) represents resistant strains obtained by selection of HIV-1^NL4-3 against the compound of Example 9 after 34 passages comprising protease genotype R8K, M46I, L63P, A71V, L90M.” left out

[11] = system: NL4(538/P24-AG); assay: Viral isolate resistance assay per Markowitz et al., NL4(538/P24-AG); assay type: cell-based, HIV-1; settings: Human immunodeficiency virus 1; Table 10; NL4(P22-538) selected against Example 12, 24 passages
Excerpt: as §1, with “NLA(P19-003) represents resistant strains obtained by selection of HIV-1^NL4-3 against the compound of Example 9 after 19 passages comprising protease genotype R8K, M46I. NL4(P34-003) represents resistant strains obtained by selection of HIV-1^NL4-3 against the compound of Example 9 after 34 passages comprising protease genotype R8K, M46I, L63P, A71V, L90M.” left out

[12] = system: NLA(P19-003); assay: Viral isolate resistance assay per Markowitz et al., NLA(P19-003); assay type: cell-based, HIV-1; settings: Human immunodeficiency virus 1, read-out: Virus Isolate (EC50 nM) NLA(P19-003)
Excerpt: as §4

[13] = system: NL4(P34-003); assay: Viral isolate resistance assay per Markowitz et al., NL4(P34-003); assay type: cell-based, HIV-1; settings: Human immunodeficiency virus 1; Table 11; selected against Example 9, 34 passages
Excerpt: as §4

Structure (SMILES) | EC50 [1] [ng/mL] | EC50 [2] [ng/mL] | EC90 ([3]; Table 7, EC90, read-out: Virus Isolate (EC90 nM) NL4) [nM] | EC50 ([3]; Table 8, read-out: Virus Isolate (EC50 nM) NL4) [nM] | EC90 [4] [nM] | EC90 [5] [nM] | EC50 [6] [nM] | EC50 [7] [nM] | EC50 [8] [nM] | EC50 [9] [nM] | EC50 [10] [nM] | EC50 [11] [nM] | EC50 [12] [nM] | EC50 [13] [nM]
COc1ccc(S(=O)(=O)N(CC(C)C)C[C@@H](O)[C@H](Cc2ccccc2)NC(=O)[C@H](C)CS(C)(=O)=O)cc1 (relative stereo) [Example 4, [1S-[1R*(R*),2S*]]-N-[2-hydroxy-3-[N^1-(2-methylpropyl)-N-(4-methoxyphenylsulfonyl)amino]-1-(phenylmethyl)propyl]-2-methyl-3-(methylsulfonyl)propanamide] | 10 (≈ 18 nM) | 0.4 (≈ 0.721 nM) | – | – | – | – | – | – | – | – | – | – | – | –
COc1ccc(S(=O)(=O)N(CC(C)C)C[C@@H](O)[C@H](Cc2ccccc2)NC(=O)OCc2cncnc2)cc1 [Example 3, [2R-hydroxy-3-[[(4-methoxyphenyl)sulfonyl](2-methylpropyl)amino]-1S-(phenylmethyl)propyl]carbamic acid 5-pyrimidylmethyl ester] | 5 (≈ 9.21 nM) | 2 (≈ 3.69 nM) | – | – | – | – | – | – | – | – | – | – | – | –
CC(C)c1nc(CN(C)C(=O)N[C@H](C(=O)N[C@@H](Cc2ccccc2)C[C@H](O)[C@H](Cc2ccccc2)NC(=O)OCc2cncs2)C(C)C)cs1 [Example 10] | – | – | 80 | 80 | 160 | 800 | 240 | 1600 | 6400 | 6400 | 6400 | 6400 | 400 | 400

From US20030207813A1, “Retroviral protease inhibitor combinations” (priority 1995, published 2003)
